pIC50: −log10 of the molar value. Like-named read-outs stand apart in the source and are kept apart here. Where a SMILES comes first, the peptide text is derived from it. Where no end group is shown, it is not given here.
Assays:
[1] = target: HLA-B*0702 (Homo sapiens, UniProt P01889); assay type: binding
[2] = test system: B7-supertype molecules (B*0702, B*3501, B*5101, B*5301, B*5401); assay: B7-supertype cross-reactive binding; parameters: species or system human; conditions: of five B7-supertype alleles tested
[3] = target: DRB1*0301 (DR3) (Homo sapiens, UniProt P01903+P01911, A100K/A102G/A103R/A169T/F55Y/I96L/K41T/L162R/M171V/P40S/Q125H/Q178H/Q39Y/R42S/S66N/T106N/T262R/W38E/Y61H); assay: HLA class II peptide binding assay, purified HLA; conditions: unit not given
[4] = Table XXIV, B7 supermotif peptides
[5] = Table XIX, DR supermotif peptides
[6] = Table XXa, DR 3a motif peptides

Row | pIC50 [1, 4] | No. of B7 Alleles Crossbound [2] | DR3 binding data [3, 6] | Compound | also measured
1 | 8.34 |  |  | CC[C@H](C)[C@H](NC(=O)[C@H](CO)NC(=O)[C@H](CC(C)C)NC(=O)[C@H](CO)NC(=O)[C@H](C)NC(=O)[C@H](CC(N)=O)NC(=O)[C@@H](NC(=O)[C@@H]1CCCN1C(=O)[C@@H](N)Cc1ccccc1)[C@@H](C)O)C(=O)O [Her2/neu.65.F1I9] | 
2 | 6.92 |  |  | CC[C@H](C)[C@H](NC(=O)[C@H](Cc1ccccc1)NC(=O)[C@H](CO)NC(=O)[C@H](CC(C)C)NC(=O)[C@H](CO)NC(=O)[C@H](C)NC(=O)[C@H](CC(N)=O)NC(=O)[C@@H](NC(=O)[C@@H]1CCCN1C(=O)[C@@H](N)Cc1ccccc1)[C@@H](C)O)C(=O)O [Her2/neu.65.F1I10] | 
3 | 8.80 |  |  | CC[C@H](C)[C@H](NC(=O)[C@@H]1CCCN1C(=O)[C@@H](NC(=O)[C@@H](NC(=O)[C@H](CC(N)=O)NC(=O)[C@H](CC(N)=O)NC(=O)[C@H](CC(C)C)NC(=O)[C@@H]1CCCN1C(=O)[C@@H](N)Cc1ccccc1)[C@@H](C)O)[C@@H](C)O)C(=O)O [Her2/neu.121.F1I9] | 
4 |  | 3 |  | CC[C@H](C)[C@H](NC(=O)[C@H](CS)NC(=O)[C@H](CCCNC(=N)N)NC(=O)[C@H](CO)NC(=O)CNC(=O)[C@H](CCCCN)NC(=O)[C@H](CS)NC(=O)[C@H](CCSC)NC(=O)[C@@H]1CCCN1C(=O)[C@@H](N)Cc1ccccc1)C(=O)O [Her2/neu.196.F1] (H-FPMCKGSRCI-OH; N-terminus and C-terminus assumed) | 
5 | 6.49 | 5 |  | CC[C@H](C)[C@H](NC(=O)[C@@H](NC(=O)[C@H](Cc1ccc(O)cc1)NC(=O)[C@H](CCCNC(=N)N)NC(=O)CNC(=O)[C@H](CCC(=O)O)NC(=O)[C@@H]1CCCN1C(=O)[C@H](CC(N)=O)NC(=O)[C@@H]1CCCN1C(=O)[C@@H](N)Cc1ccccc1)[C@@H](C)O)C(=O)O [Her2/neu.282.F1] | 
6 | 7.47 | 5 |  | CC[C@H](C)[C@H](NC(=O)[C@@H](NC(=O)[C@H](Cc1ccc(O)cc1)NC(=O)[C@H](CCCNC(=N)N)NC(=O)CNC(=O)[C@H](CCC(=O)O)NC(=O)[C@@H]1CCCN1C(=O)[C@H](CC(N)=O)NC(=O)[C@@H]1CCCN1C(=O)[C@@H](N)CCSC)[C@@H](C)O)C(=O)O [Her2/neu.282.I10] | 
7 | 6.34 | 3 |  | CC[C@H](C)[C@H](NC(=O)[C@@H](NC(=O)[C@@H](NC(=O)[C@H](CCC(=O)O)NC(=O)[C@H](CCC(N)=O)NC(=O)[C@H](CC(N)=O)NC(=O)[C@H](Cc1c[nH]cn1)NC(=O)[C@H](CC(C)C)NC(=O)[C@@H]1CCCN1C(=O)[C@@H](N)CS)C(C)C)[C@@H](C)O)C(=O)O [Her2/neu.315.I10] | 
8 | 6.72 | 3 |  | CC(C)C[C@H](NC(=O)CNC(=O)[C@H](Cc1ccc(O)cc1)NC(=O)[C@H](CS)NC(=O)[C@@H](NC(=O)[C@H](CCCNC(=N)N)NC(=O)[C@H](C)NC(=O)[C@H](CS)NC(=O)[C@@H]1CCCN1C(=O)[C@@H](N)Cc1ccccc1)C(C)C)C(=O)O [Her2/neu.336.F1] | 
9 | 6.83 | 1 |  | CC(C)C[C@H](NC(=O)CNC(=O)[C@H](Cc1ccc(O)cc1)NC(=O)[C@H](CS)NC(=O)[C@@H](NC(=O)[C@H](CCCNC(=N)N)NC(=O)[C@H](C)NC(=O)[C@H](CS)NC(=O)[C@@H]1CCCN1C(=O)[C@@H](N)CCCCN)C(C)C)C(=O)O [Her2/neu.336] (H-KPCARVCYGL-OH) | 
10 | 7.07 | 4 |  | CC[C@H](C)[C@H](NC(=O)[C@@H](NC(=O)[C@H](Cc1c[nH]cn1)NC(=O)[C@H](CC(C)C)NC(=O)[C@H](CC(C)C)NC(=O)[C@H](C)NC(=O)[C@H](CCC(N)=O)NC(=O)[C@H](Cc1c[nH]cn1)NC(=O)[C@@H]1CCCN1C(=O)[C@@H](N)Cc1ccccc1)[C@@H](C)O)C(=O)O [Her2/neu.488.F1I10] | 
11 | 6.41 | 3 |  | CC(C)C[C@H](NC(=O)[C@H](C)NC(=O)[C@H](CCC(N)=O)NC(=O)[C@H](Cc1c[nH]cn1)NC(=O)[C@@H]1CCCN1C(=O)[C@@H](N)Cc1ccccc1)C(=O)N[C@@H](CC(C)C)C(=O)N[C@@H](Cc1c[nH]cn1)C(=O)N[C@H](C(=O)N[C@@H](C)C(=O)O)[C@@H](C)O [Her2/neu.488.F1] | 
12 | 6.71 | 4 |  | CC[C@H](C)[C@H](NC(=O)[C@H](CO)NC(=O)[C@H](CC(C)C)NC(=O)[C@H](CC(=O)O)NC(=O)[C@@H]1CCCN1C(=O)[C@H](CCCCN)NC(=O)[C@@H](NC(=O)CNC(=O)[C@H](CO)NC(=O)[C@@H]1CCCN1C(=O)[C@@H](N)Cc1ccccc1)C(C)C)C(=O)O [Her2/neu.600.F1I11] | 
13 | 6.54 | 3 |  | CC[C@H](C)[C@H](NC(=O)[C@H](CO)NC(=O)[C@H](CC(C)C)NC(=O)[C@H](CC(=O)O)NC(=O)[C@@H]1CCCN1C(=O)[C@H](CCCCN)NC(=O)[C@@H](NC(=O)CNC(=O)[C@H](CO)NC(=O)[C@@H]1CCCN1C(=O)[C@@H](N)CS)C(C)C)C(=O)O [Her2/neu.600.I11] | 
14 | 7.66 | 5 |  | CC[C@H](C)[C@H](NC(=O)[C@@H]1CCCN1C(=O)[C@H](CCSC)NC(=O)[C@H](Cc1ccc(O)cc1)NC(=O)[C@H](CO)NC(=O)[C@H](CC(C)C)NC(=O)[C@H](CC(=O)O)NC(=O)[C@@H]1CCCN1C(=O)[C@@H](N)Cc1ccccc1)C(=O)O [Her2/neu.605.F1] | 
15 | 7.12 | 1 |  | CC[C@H](C)[C@H](NC(=O)[C@@H]1CCCN1C(=O)[C@H](CCSC)NC(=O)[C@H](Cc1ccc(O)cc1)NC(=O)[C@H](CO)NC(=O)[C@H](CC(C)C)NC(=O)[C@H](CC(=O)O)NC(=O)[C@@H]1CCCN1C(=O)[C@@H](N)CCCCN)C(=O)O [Her2/neu.605] | 
16 |  | 5 |  | CC[C@H](C)[C@H](NC(=O)[C@H](CO)NC(=O)[C@@H](NC(=O)[C@@H](NC(=O)[C@H](CO)NC(=O)[C@@H](NC(=O)[C@H](CC(C)C)NC(=O)[C@@H]1CCCN1C(=O)[C@@H](N)Cc1ccccc1)[C@@H](C)O)[C@@H](C)CC)[C@@H](C)CC)C(=O)O [Her2/neu.649.F1I9] | 
17 | 6.64 | 5 |  | CC[C@H](C)[C@H](NC(=O)[C@H](C)NC(=O)[C@H](CO)NC(=O)[C@@H](NC(=O)[C@@H](NC(=O)[C@H](CO)NC(=O)[C@@H](NC(=O)[C@H](CC(C)C)NC(=O)[C@@H]1CCCN1C(=O)[C@@H](N)Cc1ccccc1)[C@@H](C)O)[C@@H](C)CC)[C@@H](C)CC)C(=O)O [Her2/neu.649.F1I10] | 
18 | 6.44 | 5 |  | CC[C@H](C)[C@H](NC(=O)[C@@H](NC(=O)[C@H](C)NC(=O)[C@H](CO)NC(=O)[C@@H](NC(=O)[C@@H](NC(=O)[C@H](CO)NC(=O)[C@@H](NC(=O)[C@H](CC(C)C)NC(=O)[C@@H]1CCCN1C(=O)[C@@H](N)Cc1ccccc1)[C@@H](C)O)[C@@H](C)CC)[C@@H](C)CC)C(C)C)C(=O)O [Her2/neu.649.F1I11] | 
19 | 7.07 | 3 |  | CC[C@H](C)[C@H](NC(=O)[C@H](CO)NC(=O)[C@@H](NC(=O)[C@@H](NC(=O)[C@H](CO)NC(=O)[C@@H](NC(=O)[C@H](CC(C)C)NC(=O)[C@@H]1CCCN1C(=O)[C@@H](N)CO)[C@@H](C)O)[C@@H](C)CC)[C@@H](C)CC)C(=O)O [Her2/neu.649.I9] | 
20 | 7.21 | 1 |  | CC[C@H](C)[C@H](NC(=O)[C@H](CO)NC(=O)[C@@H](NC(=O)[C@H](CC(C)C)NC(=O)[C@@H]1CCCN1C(=O)[C@@H](N)CO)[C@@H](C)O)C(=O)N[C@H](C(=O)N[C@@H](CO)C(=O)N[C@@H](C)C(=O)N[C@H](C(=O)O)C(C)C)[C@@H](C)CC [Her2/neu.649] | 

Row | pIC50 [1, 4] | No. of B7 Alleles Crossbound [2] | DR3 binding data [3, 6] | Compound | also measured
21 | 9.05 | 3 |  | CC[C@H](C)[C@H](NC(=O)[C@H](C)NC(=O)CNC(=O)[C@H](CO)NC(=O)[C@@H]1CCCN1C(=O)[C@@H](NC(=O)[C@H](CC(C)C)NC(=O)[C@@H]1CCCN1C(=O)[C@@H](N)Cc1ccccc1)[C@@H](C)O)C(=O)O [Her2/neu.698.F1I9] | 
22 | 8.70 | 4 |  | CSCC[C@H](NC(=O)[C@H](C)NC(=O)CNC(=O)[C@H](CO)NC(=O)[C@@H]1CCCN1C(=O)[C@@H](NC(=O)[C@H](CC(C)C)NC(=O)[C@@H]1CCCN1C(=O)[C@@H](N)Cc1ccccc1)[C@@H](C)O)C(=O)O [Her2/neu.698.F1] | 
23 |  |  | −0.0025 | DLTLGLEPSEEEAPR | DR3 binding data [3, 5]: −0.0025
24 |  |  | −0.0025 | DNLYYWDQDPPERGA | 
25 |  |  | −0.0027 | DTILWKDIFHKNNQL | 
26 |  |  | −0.0027 | ETEYHADGGKVPIKW | 
27 | 6.51 |  |  | FPGGLRELQI [Her2/neu.133.F1I10] | 
28 | 9.70 |  |  | FPLNNTTPV [Her2/neu.121.F1] | 
29 |  |  | −0.0025 | FVVIQNEDLGPASPL | DR3 binding data [3, 5]: −0.0025
30 |  |  | 0.0250 | GDLVDAEEYLVPQQG | 
31 |  |  | −0.0025 | KNGVVKDVFAFGGAV | 
32 |  |  | −0.0027 | LVTYNTDTFESMPNP | 
33 |  |  | −0.0027 | MRRLLQETELVEPLT | 
34 |  |  | 0.0047 | NKEILDEAYVMAGVG | 
35 |  |  | −0.0027 | NQEVTAEDGTQRCEK | 
36 |  |  | −0.0025 | SDVFDGDLGMGAAKG | 
37 |  |  | −0.0027 | SLAFLPESFDGDPAS | 
38 |  |  | 0.0520 | SLSFLQDIQEVQGYV | 
39 |  |  | 0.0023 | TAPLQPEQLQVEETL | 
40 |  |  | −0.0025 | TVPLPSETDGYVAPL | 

Row | Compound | pIC50 [1, 4] | No. of B7 Alleles Crossbound [2] | DR3 binding data [3, 6] | also measured
41 | CC[C@H](C)[C@H](NC(=O)[C@H](CC(=O)O)NC(=O)[C@@H]1CCCN1C(=O)[C@H](CC(C)C)NC(=O)[C@H](CO)NC(=O)[C@H](CC(=O)O)NC(=O)[C@@H]1CCCN1C(=O)[C@@H](N)Cc1c[nH]c2ccccc12)C(=O)O [Her2/neu.415.I8] |  | 1 |  | pIC50 [1]: 7.15
